Results as given in publication PMC5146859, “Phase 1/2 study of pacritinib, a next generation JAK2/FLT3 inhibitor, in myelofibrosis or other myeloid malignancies” (Journal of Hematology & Oncology, 2016).

Test system: patients with MF
Assay: Phase 2 safety: adverse events, serious adverse events and deaths
Type: in vivo, human
Procedure: At screening/baseline, patients underwent a medical history, physical examination, vital sign assessment, ECOG PS assessment, electrocardiogram, and assessment of hematologic parameters and blood chemistry. Hematology/blood chemistry, physical examinations, and vital sign assessments were performed throughout treatment. Toxicity was assessed using the National Cancer Institute Common Terminology Criteria for Adverse Events (NCIC-CTCAE), version 3.0, with relationship to treatment assigned by the investigator and were recorded from the first dose of pacritinib until 30 days after the last dose. Bone marrow biopsy and/or aspirate samples were drawn at baseline, on day 1 of cycle 4 and cycle 10, as clinically indicated, and at the termination visit. Disease response and progression were determined using the relevant International Working Group (IWG) criteria.
The efficacy-evaluable population included those patients with a baseline and corresponding follow-up value. The safety population included all enrolled patients who received ≥1 dose of pacritinib.

For C1=C/COCc2cc(ccc2OCCN2CCCC2)Nc2nccc(n2)-c2cccc(c2)COC/1 [pacritinib, 11-(2-pyrrolidin-1-yl-ethoxy)-14,19-dioxa-5,7,26-triaza-tetracyclo[19.3.1.1(2,6). 1(8,12)]heptacosa-1(25),2(26),3,5,8,10,12(27),16,21,23-decaene], the “Relation of deaths to pacritinib” value (phase 2) was “None of the deaths were considered related to pacritinib”, the “SAEs considered related to pacritinib” value (phase 2) was “two” and the Gastrointestinal toxicities (phase 2, n = 31) was “reported by all patients”. For the same compound, the “Grade 3/4 AE: anemia” value (phase 2, n = 31) was 5 n, the “Grade 3/4 AE: bone pain” value (phase 2, n = 31) was 4 n and the “Grade 3/4 AE: diarrhea” value (phase 2, n = 31) was 5 n. For the same compound, the “Grade 3/4 AE: fatigue” value (phase 2, n = 31) was 5 n, the “Grade 3 or 4 thrombocytopenia” value (phase 2, n = 31) was “three” and the “Grade 3 treatment-related AEs” value (phase 2, n = 31) was 22.6%. The “Grade 4 treatment-related AEs” value (phase 2, n = 31) was “No grade 4/5 treatment-related AEs were reported”, the “Leukopenia, neutropenia, lymphopenia” value (phase 2, n = 31) was “No leukopenia, neutropenia, or lymphopenia was reported” and the “Patients who discontinued pacritinib because of an AE” value (phase 2, n = 31) was 9.7%. For the same compound, the “Patients with SAEs” value (phase 2, n = 31) was 41.9%, the “Patients with at least one grade 3/4 AE” value (phase 2, n = 31) was 71.0% and the “Patients with dose interruptions because of AEs” value (phase 2, n = 31) was “Fourteen”. The “Patients with dose reductions because of AEs” value (phase 2, n = 31) was 14 patients, the “Treatment-related AE: diarrhea” value (phase 2, n = 31) was 90.3% and the “Treatment-related AE: fatigue” value (phase 2, n = 31) was 12.9%. The “Treatment-related AE: nausea” value (phase 2, n = 31) was 48.4%, the “Treatment-related AE: vomiting” value (phase 2, n = 31) was 29.0% and the “Treatment-emergent AE: Abdominal pain” value (phase 2, n = 31, Any grade) was 9 (29.0) n (%). For the same compound, the “Treatment-emergent AE: Anemia” value (phase 2, n = 31, Any grade) was 6 (19.4) n (%), the “Treatment-emergent AE: Asthenia” value (phase 2, n = 31, Any grade) was 5 (16.1) n (%) and the “Treatment-emergent AE: Bone pain” value (phase 2, n = 31, Any grade) was 6 (19.4) n (%). The “Treatment-emergent AE: Cardiac murmur” value (phase 2, n = 31, Any grade) was 4 (12.9) n (%), the “Treatment-emergent AE: Constipation” value (phase 2, n = 31, Any grade) was 5 (16.1) n (%) and the “Treatment-emergent AE: Diarrhea” value (phase 2, n = 31, Any grade) was 28 (90.3) n (%). The “Treatment-emergent AE: Dyspnea” value (phase 2, n = 31, Any grade) was 5 (16.1) n (%), the “Treatment-emergent AE: Edema peripheral” value (phase 2, n = 31, Any grade) was 12 (38.7) n (%) and the “Treatment-emergent AE: Fatigue” value (phase 2, n = 31, Any grade) was 18 (58.1) n (%). The “Treatment-emergent AE: Hyperuricemia” value (phase 2, n = 31, Any grade) was 4 (12.9) n (%), the “Treatment-emergent AE: Insomnia” value (phase 2, n = 31, Any grade) was 9 (29.0) n (%) and the “Treatment-emergent AE: Nausea” value (phase 2, n = 31, Any grade) was 16 (51.6) n (%). For the same compound, the “Treatment-emergent AE: Night sweats” value (phase 2, n = 31, Any grade) was 7 (22.6) n (%), the “Treatment-emergent AE: Pain in extremity” value (phase 2, n = 31, Any grade) was 8 (25.8) n (%) and the “Treatment-emergent AE: Pruritus” value (phase 2, n = 31, Any grade) was 9 (29.0) n (%). The “Treatment-emergent AE: Pyrexia” value (phase 2, n = 31, Any grade) was 4 (12.9) n (%), the “Treatment-emergent AE: Rash” value (phase 2, n = 31, Any grade) was 4 (12.9) n (%) and the “Treatment-emergent AE: Upper respiratory tract infection” value (phase 2, n = 31, Any grade) was 4 (12.9) n (%). For the same compound, the “Treatment-emergent AE: Vomiting” value (phase 2, n = 31, Any grade) was 11 (35.5) n (%), the “Treatment-emergent AE: Weight decreased” value (phase 2, n = 31, Any grade) was 4 (12.9) n (%) and the “Treatment-emergent AE: Abdominal pain” value (phase 2, n = 31, Grade 1) was 3 (9.7) n (%). For the same compound, the “Treatment-emergent AE: Anemia” value (phase 2, n = 31, Grade 1) was 0 n (%), the “Treatment-emergent AE: Asthenia” value (phase 2, n = 31, Grade 1) was 4 (12.9) n (%) and the “Treatment-emergent AE: Bone pain” value (phase 2, n = 31, Grade 1) was 1 (3.2) n (%). The “Treatment-emergent AE: Cardiac murmur” value (phase 2, n = 31, Grade 1) was 0 n (%), the “Treatment-emergent AE: Constipation” value (phase 2, n = 31, Grade 1) was 5 (16.1) n (%) and the “Treatment-emergent AE: Diarrhea” value (phase 2, n = 31, Grade 1) was 14 (45.2) n (%). For the same compound, the “Treatment-emergent AE: Dyspnea” value (phase 2, n = 31, Grade 1) was 4 (12.9) n (%), the “Treatment-emergent AE: Edema peripheral” value (phase 2, n = 31, Grade 1) was 6 (19.4) n (%) and the “Treatment-emergent AE: Fatigue” value (phase 2, n = 31, Grade 1) was 2 (6.5) n (%). The “Treatment-emergent AE: Hyperuricemia” value (phase 2, n = 31, Grade 1) was 2 (6.5) n (%), the “Treatment-emergent AE: Insomnia” value (phase 2, n = 31, Grade 1) was 7 (22.6) n (%) and the “Treatment-emergent AE: Nausea” value (phase 2, n = 31, Grade 1) was 9 (29.0) n (%). The “Treatment-emergent AE: Night sweats” value (phase 2, n = 31, Grade 1) was 4 (12.9) n (%), the “Treatment-emergent AE: Pain in extremity” value (phase 2, n = 31, Grade 1) was 5 (16.1) n (%) and the “Treatment-emergent AE: Pruritus” value (phase 2, n = 31, Grade 1) was 4 (12.9) n (%). For the same compound, the “Treatment-emergent AE: Pyrexia” value (phase 2, n = 31, Grade 1) was 4 (12.9) n (%), the “Treatment-emergent AE: Rash” value (phase 2, n = 31, Grade 1) was 2 (6.5) n (%) and the “Treatment-emergent AE: Upper respiratory tract infection” value (phase 2, n = 31, Grade 1) was 3 (9.7) n (%). For the same compound, the “Treatment-emergent AE: Vomiting” value (phase 2, n = 31, Grade 1) was 7 (22.6) n (%), the “Treatment-emergent AE: Weight decreased” value (phase 2, n = 31, Grade 1) was 4 (12.9) n (%) and the “Treatment-emergent AE: Abdominal pain” value (phase 2, n = 31, Grade 2) was 3 (9.7) n (%). The “Treatment-emergent AE: Anemia” value (phase 2, n = 31, Grade 2) was 1 (3.2) n (%), the “Treatment-emergent AE: Asthenia” value (phase 2, n = 31, Grade 2) was 1 (3.2) n (%) and the “Treatment-emergent AE: Bone pain” value (phase 2, n = 31, Grade 2) was 1 (3.2) n (%). For the same compound, the “Treatment-emergent AE: Cardiac murmur” value (phase 2, n = 31, Grade 2) was 4 (12.9) n (%), the “Treatment-emergent AE: Constipation” value (phase 2, n = 31, Grade 2) was 0 n (%) and the “Treatment-emergent AE: Diarrhea” value (phase 2, n = 31, Grade 2) was 9 (29.0) n (%). For the same compound, the “Treatment-emergent AE: Dyspnea” value (phase 2, n = 31, Grade 2) was 0 n (%), the “Treatment-emergent AE: Edema peripheral” value (phase 2, n = 31, Grade 2) was 5 (16.1) n (%) and the “Treatment-emergent AE: Fatigue” value (phase 2, n = 31, Grade 2) was 11 (35.5) n (%). The “Treatment-emergent AE: Hyperuricemia” value (phase 2, n = 31, Grade 2) was 0 n (%), the “Treatment-emergent AE: Insomnia” value (phase 2, n = 31, Grade 2) was 2 (6.5) n (%) and the “Treatment-emergent AE: Nausea” value (phase 2, n = 31, Grade 2) was 6 (19.4) n (%). The “Treatment-emergent AE: Night sweats” value (phase 2, n = 31, Grade 2) was 3 (9.7) n (%), the “Treatment-emergent AE: Pain in extremity” value (phase 2, n = 31, Grade 2) was 2 (6.5) n (%) and the “Treatment-emergent AE: Pruritus” value (phase 2, n = 31, Grade 2) was 4 (12.9) n (%). For the same compound, the “Treatment-emergent AE: Pyrexia” value (phase 2, n = 31, Grade 2) was 0 n (%), the “Treatment-emergent AE: Rash” value (phase 2, n = 31, Grade 2) was 1 (3.2) n (%) and the “Treatment-emergent AE: Upper respiratory tract infection” value (phase 2, n = 31, Grade 2) was 1 (3.2) n (%). For the same compound, the “Treatment-emergent AE: Vomiting” value (phase 2, n = 31, Grade 2) was 3 (9.7) n (%), the “Treatment-emergent AE: Weight decreased” value (phase 2, n = 31, Grade 2) was 0 n (%) and the “Treatment-emergent AE: Abdominal pain” value (phase 2, n = 31, Grade 3) was 3 (9.7) n (%). The “Treatment-emergent AE: Anemia” value (phase 2, n = 31, Grade 3) was 3 (9.7) n (%), the “Treatment-emergent AE: Asthenia” value (phase 2, n = 31, Grade 3) was 0 n (%) and the “Treatment-emergent AE: Bone pain” value (phase 2, n = 31, Grade 3) was 4 (12.9) n (%). For the same compound, the “Treatment-emergent AE: Cardiac murmur” value (phase 2, n = 31, Grade 3) was 0 n (%), the “Treatment-emergent AE: Constipation” value (phase 2, n = 31, Grade 3) was 0 n (%) and the “Treatment-emergent AE: Diarrhea” value (phase 2, n = 31, Grade 3) was 5 (16.1) n (%). For the same compound, the “Treatment-emergent AE: Dyspnea” value (phase 2, n = 31, Grade 3) was 1 (3.2) n (%), the “Treatment-emergent AE: Edema peripheral” value (phase 2, n = 31, Grade 3) was 1 (3.2) n (%) and the “Treatment-emergent AE: Fatigue” value (phase 2, n = 31, Grade 3) was 4 (12.9) n (%). The “Treatment-emergent AE: Hyperuricemia” value (phase 2, n = 31, Grade 3) was 0 n (%), the “Treatment-emergent AE: Insomnia” value (phase 2, n = 31, Grade 3) was 0 n (%) and the “Treatment-emergent AE: Nausea” value (phase 2, n = 31, Grade 3) was 1 (3.2) n (%). For the same compound, the “Treatment-emergent AE: Night sweats” value (phase 2, n = 31, Grade 3) was 0 n (%), the “Treatment-emergent AE: Pain in extremity” value (phase 2, n = 31, Grade 3) was 0 n (%) and the “Treatment-emergent AE: Pruritus” value (phase 2, n = 31, Grade 3) was 1 (3.2) n (%). The “Treatment-emergent AE: Pyrexia” value (phase 2, n = 31, Grade 3) was 0 n (%), the “Treatment-emergent AE: Rash” value (phase 2, n = 31, Grade 3) was 1 (3.2) n (%) and the “Treatment-emergent AE: Upper respiratory tract infection” value (phase 2, n = 31, Grade 3) was 0 n (%). The “Treatment-emergent AE: Vomiting” value (phase 2, n = 31, Grade 3) was 1 (3.2) n (%), the “Treatment-emergent AE: Weight decreased” value (phase 2, n = 31, Grade 3) was 0 n (%) and the “Treatment-emergent AE: Abdominal pain” value (phase 2, n = 31, Grade 4) was 0 n (%). For the same compound, the “Treatment-emergent AE: Anemia” value (phase 2, n = 31, Grade 4) was 2 (6.5) n (%), the “Treatment-emergent AE: Asthenia” value (phase 2, n = 31, Grade 4) was 0 n (%) and the “Treatment-emergent AE: Bone pain” value (phase 2, n = 31, Grade 4) was 0 n (%). For the same compound, the “Treatment-emergent AE: Cardiac murmur” value (phase 2, n = 31, Grade 4) was 0 n (%), the “Treatment-emergent AE: Constipation” value (phase 2, n = 31, Grade 4) was 0 n (%) and the “Treatment-emergent AE: Diarrhea” value (phase 2, n = 31, Grade 4) was 0 n (%). The “Treatment-emergent AE: Dyspnea” value (phase 2, n = 31, Grade 4) was 0 n (%), the “Treatment-emergent AE: Edema peripheral” value (phase 2, n = 31, Grade 4) was 0 n (%) and the “Treatment-emergent AE: Fatigue” value (phase 2, n = 31, Grade 4) was 1 (3.2) n (%). The “Treatment-emergent AE: Hyperuricemia” value (phase 2, n = 31, Grade 4) was 2 (6.5) n (%), the “Treatment-emergent AE: Insomnia” value (phase 2, n = 31, Grade 4) was 0 n (%) and the “Treatment-emergent AE: Nausea” value (phase 2, n = 31, Grade 4) was 0 n (%). For the same compound, the “Treatment-emergent AE: Night sweats” value (phase 2, n = 31, Grade 4) was 0 n (%), the “Treatment-emergent AE: Pain in extremity” value (phase 2, n = 31, Grade 4) was 1 (3.2) n (%) and the “Treatment-emergent AE: Pruritus” value (phase 2, n = 31, Grade 4) was 0 n (%). The “Treatment-emergent AE: Pyrexia” value (phase 2, n = 31, Grade 4) was 0 n (%), the “Treatment-emergent AE: Rash” value (phase 2, n = 31, Grade 4) was 0 n (%) and the “Treatment-emergent AE: Upper respiratory tract infection” value (phase 2, n = 31, Grade 4) was 0 n (%). The “Treatment-emergent AE: Vomiting” value (phase 2, n = 31, Grade 4) was 0 n (%), the “Treatment-emergent AE: Weight decreased” value (phase 2, n = 31, Grade 4) was 0 n (%) and the Patients who died (phase 2, of 33 enrolled) was 27.3%.
